Experimental data from patent US20080138403A1, “PHARMACEUTICAL DOSAGE FORMS OF OXCARBAZEPINE” (Sun Pharmaceutical Industries Ltd., priority 2006, published 2008).

Assays:
[1] = cited from earlier work
[2] = particle size by Malvern laser diffraction; assay type: physicochemical
Procedure: The particle size of oxcarbazepine may be measured using laser light diffraction technique based instrument such as a Malvern Mastersizer Microplus apparatus. Other known methods of measuring particle size may also be used. The particle size distribution of oxcarbazepine was checked after subjecting the slurry of oxcarbazepine and the hydrophilic polymer in a solvent, to mixing in a colloid mill. The particle size was determined by Malvern laser diffraction technique. The particles were dispersed in an aqueous dispersion medium of Tween 20 (0.1 ml/litre).

[3] = Example 1 slurry after mixing in colloid mill, dispersed in aqueous Tween 20
[4] = oxcarbazepine used for the slurry of Example 2

NC(=O)N1c2ccccc2CC(=O)c2ccccc21 [oxcarbazepine, 10,11-Dihydro-10-oxo-5H-dibenz [b,f]azepine-5-carboxamide]
solubility in water [1]: practically insoluble | Particle size D (v, 0.1) 10% particles undersized [2, 3]: 6.93 μm | Particle size D (v, 0.5) 50% particles undersized [2, 3]: 20.56 μm | Particle size D (v, 0.91) 90% particles undersized [2, 3]: 45.97 μm | median particle size D50 [2, 4]: 24.91 μm | particle size D10 [2, 4]: 6.59 μm | particle size D90 [2, 4]: 63.31 μm
